Source: publication PMC4854315, “Discovery of a novel allosteric inhibitor-binding site in ERK5: comparison with the canonical kinase hinge ATP-binding site” (Acta Crystallographica. Section D, Structural Biology, 2016)

Key:
Assay in all cases: Z'-LYTE kinase panel
Format in all cases: biochemical
EPHA4 = target: T1, EPHA4 (Homo sapiens, UniProt P54764)
T1 construct: purchased ThermoFisher (SelectScreen, Z'-LYTE)
Method: (§1) Compounds 2, 3 and 5 were tested for activity against the 225 kinases in the ThermoFisher standard kinase panel. The standard Z′-LYTE assay protocol (ThermoFisher) was used to measure the percentage inhibition at 10 µM compound concentration (details are provided in the supporting information).

EPHA5 = target: T2, EPHA5 (Homo sapiens, UniProt P54756)
T2 construct: purchased ThermoFisher (SelectScreen, Z'-LYTE)
Method: as §1

EPHA8 = target: T3, EPHA8 (Homo sapiens, UniProt P29322)
T3 construct: purchased ThermoFisher (SelectScreen, Z'-LYTE)
T3 sequence (P29322 28-1005): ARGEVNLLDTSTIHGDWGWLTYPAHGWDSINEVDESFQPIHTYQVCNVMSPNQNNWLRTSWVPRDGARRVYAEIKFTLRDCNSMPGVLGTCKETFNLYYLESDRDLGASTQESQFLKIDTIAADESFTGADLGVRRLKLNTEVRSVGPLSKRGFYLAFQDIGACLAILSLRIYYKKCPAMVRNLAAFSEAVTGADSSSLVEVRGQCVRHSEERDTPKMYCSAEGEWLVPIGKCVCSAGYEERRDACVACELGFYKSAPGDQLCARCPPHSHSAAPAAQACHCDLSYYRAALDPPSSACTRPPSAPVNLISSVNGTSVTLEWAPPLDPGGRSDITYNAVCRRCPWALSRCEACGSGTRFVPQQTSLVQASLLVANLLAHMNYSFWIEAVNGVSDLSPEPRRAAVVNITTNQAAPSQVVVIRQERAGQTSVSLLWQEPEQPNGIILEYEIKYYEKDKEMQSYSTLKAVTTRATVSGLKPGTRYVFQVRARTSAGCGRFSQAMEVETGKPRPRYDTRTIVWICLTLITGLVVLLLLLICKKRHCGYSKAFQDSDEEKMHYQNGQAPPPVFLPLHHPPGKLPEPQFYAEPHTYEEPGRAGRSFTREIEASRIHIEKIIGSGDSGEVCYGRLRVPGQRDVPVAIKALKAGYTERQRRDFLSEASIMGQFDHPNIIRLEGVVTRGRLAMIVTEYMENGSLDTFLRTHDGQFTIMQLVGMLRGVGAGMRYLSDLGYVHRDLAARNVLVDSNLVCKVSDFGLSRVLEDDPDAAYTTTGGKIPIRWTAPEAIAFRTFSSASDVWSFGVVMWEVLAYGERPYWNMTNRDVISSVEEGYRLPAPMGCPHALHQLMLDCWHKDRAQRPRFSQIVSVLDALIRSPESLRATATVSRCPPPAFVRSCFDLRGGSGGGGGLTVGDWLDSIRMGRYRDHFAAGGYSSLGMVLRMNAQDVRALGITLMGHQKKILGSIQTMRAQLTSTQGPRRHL
Method: as §1

ERBB4 (HER4) = target: T4, ERBB4 (HER4) (Homo sapiens, UniProt Q15303)
T4 construct: purchased ThermoFisher (SelectScreen, Z'-LYTE)
Method: as §1

HIPK4 = target: T5, HIPK4 (Homo sapiens, UniProt Q8NE63)
T5 construct: purchased ThermoFisher (SelectScreen, Z'-LYTE)
T5 sequence (Q8NE63 1-616): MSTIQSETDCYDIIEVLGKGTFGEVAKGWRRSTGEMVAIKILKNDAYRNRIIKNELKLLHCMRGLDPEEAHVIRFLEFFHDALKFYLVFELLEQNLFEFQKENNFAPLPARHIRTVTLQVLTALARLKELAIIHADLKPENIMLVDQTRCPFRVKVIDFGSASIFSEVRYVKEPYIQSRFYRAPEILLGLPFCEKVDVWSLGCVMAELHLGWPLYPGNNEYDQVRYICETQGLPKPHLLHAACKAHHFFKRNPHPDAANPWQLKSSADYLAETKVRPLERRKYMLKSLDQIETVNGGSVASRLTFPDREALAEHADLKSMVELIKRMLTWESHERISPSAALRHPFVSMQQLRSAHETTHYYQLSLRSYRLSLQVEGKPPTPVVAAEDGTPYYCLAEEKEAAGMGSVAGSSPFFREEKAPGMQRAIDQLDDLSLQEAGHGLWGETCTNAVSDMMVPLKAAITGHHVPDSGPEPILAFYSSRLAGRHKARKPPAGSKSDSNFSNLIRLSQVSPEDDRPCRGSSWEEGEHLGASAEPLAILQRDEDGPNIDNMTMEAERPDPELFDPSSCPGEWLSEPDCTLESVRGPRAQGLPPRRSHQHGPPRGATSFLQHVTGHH
Method: as §1

KDR (VEGFR2) = target: T6, KDR (VEGFR2) (Homo sapiens, UniProt P35968)
T6 construct: purchased ThermoFisher (SelectScreen, Z'-LYTE)
Method: as §1

MATK (HYL) = target: T7, MATK (HYL) (Homo sapiens, UniProt P42679)
T7 construct: purchased ThermoFisher (SelectScreen, Z'-LYTE)
T7 sequence (P42679 1-507): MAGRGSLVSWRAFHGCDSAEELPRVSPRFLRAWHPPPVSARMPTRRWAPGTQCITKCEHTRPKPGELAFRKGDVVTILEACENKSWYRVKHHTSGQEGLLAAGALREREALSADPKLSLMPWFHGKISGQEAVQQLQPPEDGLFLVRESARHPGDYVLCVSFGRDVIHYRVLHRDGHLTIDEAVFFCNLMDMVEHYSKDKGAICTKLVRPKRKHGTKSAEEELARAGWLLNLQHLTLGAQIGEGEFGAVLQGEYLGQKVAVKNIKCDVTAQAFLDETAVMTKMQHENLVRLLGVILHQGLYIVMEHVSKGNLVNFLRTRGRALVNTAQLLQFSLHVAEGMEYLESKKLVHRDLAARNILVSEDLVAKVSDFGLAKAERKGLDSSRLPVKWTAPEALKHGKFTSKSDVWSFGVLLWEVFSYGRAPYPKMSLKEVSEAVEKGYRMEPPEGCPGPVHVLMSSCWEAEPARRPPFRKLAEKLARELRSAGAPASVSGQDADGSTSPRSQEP
Method: as §1

PAK6 = target: T8, PAK6 (Homo sapiens, UniProt Q9NQU5)
T8 construct: purchased ThermoFisher (SelectScreen, Z'-LYTE)
Method: as §1

RPS6KA3 (RSK2) = target: T9, RPS6KA3 (RSK2) (Homo sapiens, UniProt P51812)
T9 construct: purchased ThermoFisher (SelectScreen, Z'-LYTE)
Method: as §1

YES1 = target: T10, YES1 (Homo sapiens, UniProt P07947)
T10 construct: purchased ThermoFisher (SelectScreen, Z'-LYTE)
Method: as §1

T6 sequence (P35968 20-1356): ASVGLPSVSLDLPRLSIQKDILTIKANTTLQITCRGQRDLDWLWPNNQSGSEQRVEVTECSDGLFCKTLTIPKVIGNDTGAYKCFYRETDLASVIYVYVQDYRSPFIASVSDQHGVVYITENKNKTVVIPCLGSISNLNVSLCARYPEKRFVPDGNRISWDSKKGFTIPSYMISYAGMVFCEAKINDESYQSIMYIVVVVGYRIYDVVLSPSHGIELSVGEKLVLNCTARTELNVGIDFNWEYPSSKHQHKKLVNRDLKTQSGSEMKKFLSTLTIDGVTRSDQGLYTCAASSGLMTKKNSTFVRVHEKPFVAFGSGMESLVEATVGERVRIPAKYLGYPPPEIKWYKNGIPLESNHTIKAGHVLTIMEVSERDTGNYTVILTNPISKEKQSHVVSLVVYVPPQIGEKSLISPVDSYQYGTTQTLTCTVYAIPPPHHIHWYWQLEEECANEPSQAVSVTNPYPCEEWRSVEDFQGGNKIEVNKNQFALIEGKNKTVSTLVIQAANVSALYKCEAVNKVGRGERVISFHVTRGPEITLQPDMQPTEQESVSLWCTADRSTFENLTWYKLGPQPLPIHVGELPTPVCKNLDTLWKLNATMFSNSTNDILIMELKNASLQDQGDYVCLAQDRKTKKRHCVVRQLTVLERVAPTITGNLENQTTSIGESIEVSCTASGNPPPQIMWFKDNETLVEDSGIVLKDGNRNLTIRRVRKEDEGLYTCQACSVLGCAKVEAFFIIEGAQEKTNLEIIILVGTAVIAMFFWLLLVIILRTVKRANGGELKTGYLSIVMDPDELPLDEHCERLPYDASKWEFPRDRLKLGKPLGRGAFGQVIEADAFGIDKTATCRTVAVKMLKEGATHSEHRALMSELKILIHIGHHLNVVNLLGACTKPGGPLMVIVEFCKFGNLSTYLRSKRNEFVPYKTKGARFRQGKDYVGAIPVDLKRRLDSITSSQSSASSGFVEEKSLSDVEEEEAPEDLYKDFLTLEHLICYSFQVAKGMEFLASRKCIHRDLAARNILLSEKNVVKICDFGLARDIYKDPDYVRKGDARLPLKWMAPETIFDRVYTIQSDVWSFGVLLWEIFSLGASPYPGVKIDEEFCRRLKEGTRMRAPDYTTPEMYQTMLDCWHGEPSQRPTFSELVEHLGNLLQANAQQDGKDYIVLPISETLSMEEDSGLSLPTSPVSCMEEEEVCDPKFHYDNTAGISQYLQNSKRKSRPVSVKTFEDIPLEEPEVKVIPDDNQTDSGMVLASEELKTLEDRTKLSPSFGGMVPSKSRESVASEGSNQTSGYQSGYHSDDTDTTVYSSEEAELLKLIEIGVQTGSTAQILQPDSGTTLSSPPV
T4 sequence (Q15303 26-1308): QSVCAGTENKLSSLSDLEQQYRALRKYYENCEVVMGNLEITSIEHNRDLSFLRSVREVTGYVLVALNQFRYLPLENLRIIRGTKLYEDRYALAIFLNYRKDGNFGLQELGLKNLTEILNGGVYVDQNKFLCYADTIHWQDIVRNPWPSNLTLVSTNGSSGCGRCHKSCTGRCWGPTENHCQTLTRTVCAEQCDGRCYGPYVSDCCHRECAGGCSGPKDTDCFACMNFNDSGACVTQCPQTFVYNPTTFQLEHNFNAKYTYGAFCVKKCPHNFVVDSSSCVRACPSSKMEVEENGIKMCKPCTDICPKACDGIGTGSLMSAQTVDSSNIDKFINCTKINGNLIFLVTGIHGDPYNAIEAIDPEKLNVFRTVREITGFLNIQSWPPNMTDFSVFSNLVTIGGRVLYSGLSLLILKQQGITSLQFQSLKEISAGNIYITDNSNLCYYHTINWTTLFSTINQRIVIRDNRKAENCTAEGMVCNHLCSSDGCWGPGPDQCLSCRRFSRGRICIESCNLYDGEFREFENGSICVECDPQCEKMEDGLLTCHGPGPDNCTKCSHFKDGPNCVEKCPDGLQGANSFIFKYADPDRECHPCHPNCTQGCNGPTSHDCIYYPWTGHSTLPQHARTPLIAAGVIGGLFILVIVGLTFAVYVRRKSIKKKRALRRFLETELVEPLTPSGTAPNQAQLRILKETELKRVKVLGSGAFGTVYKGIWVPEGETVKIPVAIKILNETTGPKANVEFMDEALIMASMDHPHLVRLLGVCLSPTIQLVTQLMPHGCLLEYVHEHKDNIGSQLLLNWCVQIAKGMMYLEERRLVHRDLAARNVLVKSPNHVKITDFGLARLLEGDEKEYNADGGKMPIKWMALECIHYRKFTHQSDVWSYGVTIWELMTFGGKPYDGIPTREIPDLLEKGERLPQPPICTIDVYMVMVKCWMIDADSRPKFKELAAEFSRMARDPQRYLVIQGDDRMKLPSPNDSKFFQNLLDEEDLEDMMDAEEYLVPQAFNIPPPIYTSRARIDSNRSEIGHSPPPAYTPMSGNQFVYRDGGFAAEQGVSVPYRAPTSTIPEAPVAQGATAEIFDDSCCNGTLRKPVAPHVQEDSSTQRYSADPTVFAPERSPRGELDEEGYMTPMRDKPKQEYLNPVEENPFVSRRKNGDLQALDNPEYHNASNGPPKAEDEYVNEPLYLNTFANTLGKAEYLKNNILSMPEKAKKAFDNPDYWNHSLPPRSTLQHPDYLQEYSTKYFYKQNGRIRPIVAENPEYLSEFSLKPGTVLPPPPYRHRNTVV
T10 sequence (P07947 whole entry): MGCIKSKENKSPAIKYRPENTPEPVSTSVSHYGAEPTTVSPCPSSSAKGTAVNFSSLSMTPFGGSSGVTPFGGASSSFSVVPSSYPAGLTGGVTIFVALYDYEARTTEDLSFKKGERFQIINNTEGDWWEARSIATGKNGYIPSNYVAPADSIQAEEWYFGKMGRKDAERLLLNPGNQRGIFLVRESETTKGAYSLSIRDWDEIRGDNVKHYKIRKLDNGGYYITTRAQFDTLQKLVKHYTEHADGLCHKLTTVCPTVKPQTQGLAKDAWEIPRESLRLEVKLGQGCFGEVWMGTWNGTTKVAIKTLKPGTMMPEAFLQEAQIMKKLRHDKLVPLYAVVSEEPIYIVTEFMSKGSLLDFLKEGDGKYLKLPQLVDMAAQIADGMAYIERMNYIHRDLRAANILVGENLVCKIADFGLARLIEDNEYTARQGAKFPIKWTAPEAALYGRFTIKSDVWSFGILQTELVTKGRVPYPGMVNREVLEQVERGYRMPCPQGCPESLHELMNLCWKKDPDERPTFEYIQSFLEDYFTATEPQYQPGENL
T2 sequence (P54756 25-1037): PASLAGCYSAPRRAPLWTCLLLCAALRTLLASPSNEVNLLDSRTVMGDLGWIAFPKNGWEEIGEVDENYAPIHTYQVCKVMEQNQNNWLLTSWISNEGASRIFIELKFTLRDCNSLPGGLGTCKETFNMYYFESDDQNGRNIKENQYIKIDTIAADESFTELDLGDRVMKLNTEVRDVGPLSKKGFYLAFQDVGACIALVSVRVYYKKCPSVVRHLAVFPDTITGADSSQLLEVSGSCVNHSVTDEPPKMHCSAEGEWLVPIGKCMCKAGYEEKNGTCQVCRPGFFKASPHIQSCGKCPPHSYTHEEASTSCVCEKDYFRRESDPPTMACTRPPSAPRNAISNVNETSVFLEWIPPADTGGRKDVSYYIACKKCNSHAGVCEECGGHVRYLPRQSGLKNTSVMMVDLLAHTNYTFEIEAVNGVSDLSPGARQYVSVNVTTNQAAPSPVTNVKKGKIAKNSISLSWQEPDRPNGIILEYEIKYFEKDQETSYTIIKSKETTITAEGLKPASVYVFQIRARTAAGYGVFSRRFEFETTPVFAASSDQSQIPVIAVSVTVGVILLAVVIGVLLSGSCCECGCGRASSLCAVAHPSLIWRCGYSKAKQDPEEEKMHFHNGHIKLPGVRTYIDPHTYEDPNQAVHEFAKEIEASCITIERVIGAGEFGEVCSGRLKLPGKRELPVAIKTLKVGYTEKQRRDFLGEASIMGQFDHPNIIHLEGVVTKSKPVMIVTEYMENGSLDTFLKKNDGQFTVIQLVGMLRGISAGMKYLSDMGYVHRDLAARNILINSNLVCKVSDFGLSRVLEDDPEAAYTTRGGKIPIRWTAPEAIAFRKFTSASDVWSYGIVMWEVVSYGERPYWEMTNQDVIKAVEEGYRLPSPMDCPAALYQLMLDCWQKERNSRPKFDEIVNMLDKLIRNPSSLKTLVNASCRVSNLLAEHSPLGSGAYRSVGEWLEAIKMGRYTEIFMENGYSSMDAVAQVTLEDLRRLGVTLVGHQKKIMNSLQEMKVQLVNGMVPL
T9 sequence (P51812 whole entry): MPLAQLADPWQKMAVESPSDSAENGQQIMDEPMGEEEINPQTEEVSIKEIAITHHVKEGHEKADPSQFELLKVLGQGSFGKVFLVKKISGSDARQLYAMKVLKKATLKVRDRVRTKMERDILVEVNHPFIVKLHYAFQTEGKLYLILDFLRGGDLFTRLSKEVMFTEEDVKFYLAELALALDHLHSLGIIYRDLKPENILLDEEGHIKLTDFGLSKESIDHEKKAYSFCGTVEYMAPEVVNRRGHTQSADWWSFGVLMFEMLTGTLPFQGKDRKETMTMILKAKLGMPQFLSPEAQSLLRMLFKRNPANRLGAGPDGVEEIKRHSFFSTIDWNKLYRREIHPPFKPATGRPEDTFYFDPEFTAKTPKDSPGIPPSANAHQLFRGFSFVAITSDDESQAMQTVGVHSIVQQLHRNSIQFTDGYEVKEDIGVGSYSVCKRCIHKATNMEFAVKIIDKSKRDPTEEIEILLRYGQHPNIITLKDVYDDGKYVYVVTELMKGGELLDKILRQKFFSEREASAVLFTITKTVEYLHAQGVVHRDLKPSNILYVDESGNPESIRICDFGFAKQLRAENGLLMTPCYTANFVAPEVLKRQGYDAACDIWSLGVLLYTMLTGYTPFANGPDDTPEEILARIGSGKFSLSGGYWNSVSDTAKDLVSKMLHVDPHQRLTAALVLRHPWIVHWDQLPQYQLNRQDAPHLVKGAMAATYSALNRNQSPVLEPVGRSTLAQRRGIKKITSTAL

| Compound | inhibition at 10 µM (EPHA4) [%] | inhibition at 10 µM (EPHA5) [%] | inhibition at 10 µM (EPHA8) [%] | inhibition at 10 µM (ERBB4 (HER4)) [%] | inhibition at 10 µM (HIPK4) [%] | inhibition at 10 µM (KDR (VEGFR2)) [%] | inhibition at 10 µM (MATK (HYL)) [%] | inhibition at 10 µM (PAK6) [%] | inhibition at 10 µM (RPS6KA3 (RSK2)) [%] | inhibition at 10 µM (YES1) [%] | EPHA4 % Inhibition (EPHA4; 10 µM compound, ATP Km app) [%] | EPHA5 % Inhibition (EPHA5; 10 µM compound, ATP Km app) [%] | EPHA8 % Inhibition (EPHA8; 10 µM compound, ATP Km app) [%] | ERBB4 (HER4) % Inhibition (ERBB4 (HER4); 10 µM compound, ATP Km app) [%] | HIPK4 % Inhibition (HIPK4; 10 µM compound, ATP Km app) [%] | KDR (VEGFR2) % Inhibition (KDR (VEGFR2); 10 µM compound, ATP Km app) [%] | MATK (HYL) % Inhibition (MATK (HYL); 10 µM compound, ATP Km app) [%] | PAK6 % Inhibition (PAK6; 10 µM compound, ATP Km app) [%] | RPS6KA3 (RSK2) % Inhibition (RPS6KA3 (RSK2); 10 µM compound, ATP Km app) [%] | YES1 % Inhibition (YES1; 10 µM compound, ATP Km app) [%] |
| --- | --- | --- | --- | --- | --- | --- | --- | --- | --- | --- | --- | --- | --- | --- | --- | --- | --- | --- | --- | --- |
| Cc1ncc(-c2nc(Nc3ccc(C(=O)NCCN4CCCCC4)cc3)ncc2F)n1C(C)C [Compound 3] | 55 | 71 | 50 | 17 | 92 | 100 | 0.522 | 27 | 81 | 85 | – | – | – | – | – | – | – | – | – | – |
| Cc1cc(Nc2nc(N)nn2C(=O)NC(C)C)ccc1Cl [Compound 5] | 10 | 6.49 | 0.0057 | 7 | 19 | 59 | -1.63 | 14 | 37 | 46 | – | – | – | – | – | – | – | – | – | – |
| XMD8-92 [Compound 2, reference compound] | – | – | – | – | – | – | – | – | – | – | 19 | 21 | 23 | 16 | 10 | 81 | 2.46 | 33 | 98 | 41 |
